Results from article PMC9851200, “Multiparameter phenotypic screening for endogenous TFEB and TFE3 translocation identifies novel chemical series modulating lysosome function” (Autophagy, 2022).
Read-outs that look alike come from different tables or passages of the source.

Tests used:
Settings in all cases: PKIS2 primary screening
endogenous TFEB = assay: TFEB nuclear translocation, immunocytochemistry high-content imaging; assay type: cell-based
endogenous TFE3 = assay: TFE3 nuclear translocation, immunocytochemistry high-content imaging; assay type: cell-based
SH-SY5Y cells [1] = tested on: SH-SY5Y cells; also: reference of the scale not given here
SH-SY5Y cells [2] = assay: AK (adenylate kinase) release ToxiLight cytotoxicity assay; also: reference of the scale not given here
SH-SY5Y cells [3] = assay: Nuclear count from microscopy images (cellular growth and toxicity); also: reference of the scale not given here

SMILES | TFEB % (endogenous TFEB) [%] | TFE3 % (endogenous TFE3) [%] | DQ Intensity (SH-SY5Y cells [1]; DQ Red BSA intensity) | DQ Spot (SH-SY5Y cells [1]; DQ Red BSA spot count) | AK (SH-SY5Y cells [2]) | Nuclear Count (SH-SY5Y cells [3]) | DQ Intensity (SH-SY5Y cells [1]) | DQ Spot (SH-SY5Y cells [1])
COc1cccc(-c2nc(-c3ccccc3)[nH]c2-c2ccncc2)c1 [UNC10225025A] | 4.20 | 10.01 | 97.17 | 101.78 | 113.94 | 132.30 |  | 
Cc1cccc(Nc2nc(NCCN)ncc2C(N)=O)c1 [UNC10225029A] | 4.35 | 9.09 |  |  | 118.19 | 111.31 | 100.58 | 100.70
CNc1nccc(-c2c(-c3ccc(F)cc3)ncn2CCCN2CCOCC2)n1 [UNC10225031A] | 8.16 | 11.89 |  |  | 73.64 | 102.35 | 87.71 | 104.14
Cn1cncc1-c1cc2c(Nc3ccc(OCc4ccccc4)cc3)ncnc2cn1 [UNC10225035A] | 6.44 | 18.86 | 110.55 | 106.44 | 76.24 | 109.40 |  | 
Cc1ccc(NC(=O)c2ccnc(N3CCCCC3)c2)cc1-c1ccc(C(=O)NCC2CC2)cc1 [UNC10225036A] | 5.85 | 6.82 |  |  | 94.08 | 108.51 | 84.91 | 99.52
Cn1cc(-c2ccc3c(c2)CCN3C(=O)Cc2cccc(Cl)c2)c2c(N)ncnc21 [UNC10225039A] | 7.96 | 17.54 |  |  | 96.09 | 137.18 | 87.65 | 95.36
COc1ccc(NC(=O)c2ccoc2)cc1-c1ccc(C(=O)NCC2CC2)cc1 [UNC10225046A] | 6.55 | 9.04 |  |  | 86.14 | 104.87 | 103.40 | 103.73
CCn1c(-c2nonc2N)nc2c(-c3ccccc3)ncc(OCCCN)c21.O=C(O)C(F)(F)F.O=C(O)C(F)(F)F [UNC10225047A] | 27.76 | 79.68 |  |  | 103.12 | 137.54 | 51.60 | 50.36
Clc1ccc(-c2cc(-c3c[nH]nc3-c3ccccn3)ccn2)cc1 [UNC10225057A] | 5.33 | 9.30 | 80.85 | 100.06 | 69.86 | 99.07 |  | 
Nc1nccc(-c2c(-c3ccc(F)cc3)ncn2C2CCN(Cc3ccccc3)CC2)n1 [UNC10225058A] | 3.25 | 7.38 |  |  | 75.20 | 98.98 | 142.65 | 129.81
COc1cc2ncn(-c3cc(OCc4ccncc4)c(C(N)=O)s3)c2cc1OC [UNC10225069A] | 3.88 | 7.35 |  |  | 99.11 | 104.39 | 66.90 | 87.03
Cn1cc(-c2ccc3c(c2)CCN3C(=O)Cc2cc(F)cc(F)c2F)c2c(N)ncnc21 [UNC10225071A] | 5.81 | 19.64 |  |  | 97.57 | 91.42 | 128.82 | 133.47
N#Cc1ccc(-c2cc(-c3c[nH]nc3-c3ccccn3)ccn2)cc1 [UNC10225072A] | 2.62 | 14.52 | 58.59 | 75.50 | 65.14 | 116.96 |  | 
Fc1ccc(Nc2nccc(-c3c(-c4ccc(Cl)cc4)nn4ncccc34)n2)cc1F [UNC10225073A] | 10.16 | 12.07 |  |  | 84.83 | 119.55 | 129.98 | 108.87
Cc1ccc(F)c(C(=O)Nc2cccc(-c3nn4ccccc4c3-c3ccnc(Nc4cccc(F)c4)n3)c2)c1F [UNC10225076A] | 2.83 | 6.05 |  |  | 111.27 | 118.77 | 103.33 | 125.97
O=C(Nc1cccc(-c2nn3ccccc3c2-c2ccnc(Nc3cccc(F)c3)n2)c1)c1c(F)ccc(F)c1Cl [UNC10225081A] | 11.80 | 13.17 |  |  | 69.78 | 54.18 | 135.52 | 127.57
COc1cc(Nc2ncc3c(C)nc(-c4cc5ccccc5[nH]4)n3n2)cc(OC)c1OC [UNC10225084A] | 3.01 | 14.67 |  |  | 112.96 | 82.05 | 112.41 | 111.83
Cl.c1ccc(Cn2ncc3cc(Nc4ncnc5ccccc45)ccc32)cc1 [UNC10225085A] | 4.60 | 11.00 | 91.33 | 107.62 | 124.83 | 82.39 |  | 
CC(C)c1nc(-c2ccc(F)c(NS(=O)(=O)c3c(F)cccc3F)c2)c(-c2ccnc(Nc3ccc(N4CCOCC4)nc3)n2)s1 [UNC10225089A] | 9.24 | 14.74 |  |  | 110.72 | 76.92 | 67.64 | 97.60
CS(=O)(=O)CCNCc1nc(-c2ccc3ncnc(Nc4ccc(OCc5cccc(F)c5)c(Cl)c4)c3c2)cs1.Cl [UNC10225091A] | 5.83 | 9.84 | 63.39 | 82.01 | 98.46 | 114.33 |  | 
CCn1c(-c2c(N)noc2C)nc2cnccc21 [UNC10225095A] | 3.05 | 10.37 |  |  | 112.40 | 110.85 | 103.20 | 105.92
FC(F)(F)c1ccc(/C=C/c2cncnc2Nc2ccc3[nH]c(Cc4ccccc4)nc3c2)cc1 [UNC10225096A] | 6.39 | 12.52 | 116.48 | 101.82 | 102.23 | 103.45 |  | 
Cc1cccc2c(-c3ccncn3)c(-c3ccc(F)cc3)nn12 [UNC10225097A] | 5.54 | 7.36 |  |  | 80.54 | 79.09 | 92.70 | 100.21
Cc1c(O)cccc1Nc1ccnc2ccc(C(F)(F)F)cc12.Cl [UNC10225099A] | 9.28 | 5.56 | 122.68 | 95.32 | 102.37 | 127.64 |  | 
Fc1cccc(COc2ccc(Nc3ncnc4sc(-c5ccc[nH]5)cc34)cc2Cl)c1 [UNC10225101A] | 8.38 | 15.82 | 109.09 | 86.09 | 123.35 | 106.63 |  | 
